One assay relates to Enterococcus faecalis. In words: Antibacterial activity against Enterococcus faecalis ATCC 33186 by microbroth dilution method. Format: functional. The conditions noted are these: Enterococcus faecalis, ATCC 33186; read-out: MIC. In general terms: Dilution methods test growth across graded concentrations, often in twofold steps.
In another assay the test system is Klebsiella pneumoniae. In words: Antibacterial activity against Klebsiella pneumoniae ATCC 33495 by microbroth dilution method. Format: functional.
The subject of another assay is Streptococcus pyogenes. In words: Antibacterial activity against Streptococcus pyogenes ATCC 700294 by microbroth dilution method. Format: functional. The conditions noted are these: Streptococcus pyogenes, ATCC 700294; read-out: MIC.
The next assay concerns Burkholderia cepacia. The experiment in a line: Antibacterial activity against Burkholderia cepacia ATCC 25416 by microbroth dilution method. Format: functional.
The next assay concerns Bacillus anthracis. The experiment in a line: Antibacterial activity against Bacillus anthracis Sterne 34F2 by microbroth dilution method. Format: functional. To be noted: Bacillus anthracis, Sterne 34F2; read-out: MIC.
For the next assay, the system named is Streptococcus pneumoniae. In words: Antibacterial activity against Streptococcus pneumoniae R6 by microbroth dilution method. The conditions noted are these: Streptococcus pneumoniae, R6; read-out: MIC. Format: functional.
Another assay concerns Proteus mirabilis. In words: Antibacterial activity against Proteus mirabilis ATCC 25933 by microbroth dilution method. Format: functional.
The subject of another assay is Bacillus subtilis. The experiment in a line: Antibacterial activity against Bacillus subtilis ATCC 23857 by microbroth dilution method. Format: functional. To be noted: Bacillus subtilis, ATCC 23857; read-out: MIC.
In assay [1] the test system is Escherichia coli. In words: Antibacterial activity against Escherichia coli K-12 by microbroth dilution method. Format: functional.
The next assay relates to Vero. In words: Cytotoxicity against African green monkey Vero cells assessed as reduction in cell viability after 72 hrs by CellTiterGlo assay. Format: cell-based. The conditions noted are these: Chlorocebus sabaeus. On the technique in general: ATP-based viability assays read luminescence as a measure of living cells.
Assay [2] deals with Mycobacterium tuberculosis. In words: Antitubercular activity against Mycobacterium tuberculosis H37Rv by microbroth dilution method. To be noted: Mycobacterium tuberculosis, H37Rv; read-out: MIC. Format: functional.
Another assay deals with Acinetobacter baumannii. The experiment in a line: Antibacterial activity against Acinetobacter baumannii ATCC 19606 by microbroth dilution method. Format: functional, ATCC 19606 = CIP 70.34 = JCM 6841. To be noted: Acinetobacter baumannii, ATCC 19606 = CIP 70.34 = JCM 6841; read-out: MIC.
Assay [3] relates to Staphylococcus aureus. The experiment in a line: Antibacterial activity against methicillin-sensitive Staphylococcus aureus ATCC 29213 by microbroth dilution method. Format: functional. To be noted: Staphylococcus aureus, ATCC 29213; read-out: MIC.
The next assay concerns Pseudomonas aeruginosa. In words: Antibacterial activity against Pseudomonas aeruginosa PAO1 by microbroth dilution method. Format: functional.
Assay [4] has as its system Escherichia coli. The experiment in a line: Antibacterial activity against Escherichia coli harboring TolC deletion mutant by microbroth dilution method. The conditions noted are these: Escherichia coli; read-out: MIC. Format: functional.
The subject of assay [5] is Staphylococcus aureus. The experiment in a line: Antibacterial activity against methicillin-resistant Staphylococcus aureus NRS70 by microbroth dilution method. Format: functional. The conditions noted are these: Staphylococcus aureus, NRS70; read-out: MIC.
The test system of a further assay is Proteus vulgaris. In words: Antibacterial activity against Proteus vulgaris ATCC 33420 by microbroth dilution method. Format: functional.

Molecules are shown by their SMILES. In brackets after ≈: the same amount, converted by molar mass.

A word on the MIC: it is the least concentration at which growth counts as inhibited. In general, IC50 refers to the concentration at which inhibition is half-maximal. With `COc1ccc2cc1Oc1cc(ccc1OC)CCC(NCCc1ccc(Cl)cc1)CCCC2` (stereo not drawn), the minimal inhibitory concentration (MIC) in the assay with Enterococcus faecalis was 12.5 µg/mL (≈ 26 µM); with Klebsiella pneumoniae, above 100 µg/mL; with Streptococcus pyogenes, 12.5 µg/mL (≈ 26 µM); in the assay with Burkholderia cepacia it was above 100 µg/mL; with Bacillus anthracis, 12.5 µg/mL (≈ 26 µM); in the assay on Streptococcus pneumoniae, 25 µg/mL (≈ 52.1 µM). The MIC in the assay on Proteus mirabilis was above 100 µg/mL; in the assay with Bacillus subtilis, 6.25 µg/mL (≈ 13 µM); against Escherichia coli [1], above 100 µg/mL; in [2], 25 µg/mL (≈ 52.1 µM); in the assay with Acinetobacter baumannii, 25 µg/mL (≈ 52.1 µM); with Staphylococcus aureus [3] it was 12.5 µg/mL (≈ 26 µM). For the same molecule, the MIC in the assay with Pseudomonas aeruginosa is above 100 µg/mL; in the assay with Escherichia coli [4] it was 6.25 µg/mL (≈ 13 µM); with Staphylococcus aureus [5], 12.5 µg/mL (≈ 26 µM); with Proteus vulgaris, above 100 µg/mL. Further, the IC50 with Vero was 6.8 µg/mL (≈ 14.2 µM).

As to `COc1ccc2cc1Oc1cc(ccc1OC)CCC(NCCc1ccc(Br)cc1)CCCC2` (stereo not drawn), the MIC with Enterococcus faecalis is 12.5 µg/mL (≈ 23.8 µM); against Klebsiella pneumoniae, above 100 µg/mL; in the assay on Streptococcus pyogenes, 50 µg/mL (≈ 95.3 µM); in the assay on Burkholderia cepacia it was above 100 µg/mL; with Bacillus anthracis, 12.5 µg/mL (≈ 23.8 µM); with Streptococcus pneumoniae, 50 µg/mL (≈ 95.3 µM). The MIC against Proteus mirabilis is above 100 µg/mL; with Bacillus subtilis, 6.25 µg/mL (≈ 11.9 µM); with Escherichia coli [1], above 100 µg/mL; in [2], 25 µg/mL (≈ 47.7 µM); in the assay on Acinetobacter baumannii, 50 µg/mL (≈ 95.3 µM); with Staphylococcus aureus [3] it was 12.5 µg/mL (≈ 23.8 µM). Besides, the MIC with Pseudomonas aeruginosa is above 100 µg/mL; in the assay on Escherichia coli [4] it was 12.5 µg/mL (≈ 23.8 µM); in the assay on Staphylococcus aureus [5], 12.5 µg/mL (≈ 23.8 µM); in the assay on Proteus vulgaris it was above 100 µg/mL. Also, in the assay with Vero, the IC50 amounted to 6.9 µg/mL (≈ 13.2 µM).

For `Oc1ccc2cc1Oc1cc(ccc1O)CCC(NCCc1ccccc1)CCCC2` (stereo not drawn), the MIC was 50 µg/mL (≈ 120 µM) with Enterococcus faecalis; above 100 µg/mL against Klebsiella pneumoniae; 50 µg/mL (≈ 120 µM) in the assay with Streptococcus pyogenes; above 100 µg/mL against Burkholderia cepacia; 50 µg/mL (≈ 120 µM) with Bacillus anthracis; 50 µg/mL (≈ 120 µM) in the assay on Streptococcus pneumoniae. In addition, the minimum inhibitory concentration (MIC) against Proteus mirabilis was above 100 µg/mL; in the assay on Bacillus subtilis, 25 µg/mL (≈ 59.9 µM); against Escherichia coli [1] it was 100 µg/mL (≈ 239 µM); in assay [2] it was 25 µg/mL (≈ 59.9 µM); in the assay on Acinetobacter baumannii it was 50 µg/mL (≈ 120 µM); in the assay on Staphylococcus aureus [3], above 100 µg/mL. Moreover, the MIC is above 100 µg/mL against Pseudomonas aeruginosa, 25 µg/mL (≈ 59.9 µM) in the assay on Escherichia coli [4], 50 µg/mL (≈ 120 µM) in the assay with Staphylococcus aureus [5] and above 100 µg/mL against Proteus vulgaris. Also, the IC50 with Vero was 11.1 µg/mL (≈ 26.6 µM).

`COc1ccc2cc1Oc1cccc(c1)CCCCC(NCCc1ccc(F)cc1)CC2` (stereo not drawn): the MIC is 12.5 µg/mL (≈ 28.8 µM) in the assay with Enterococcus faecalis; above 100 µg/mL in the assay on Klebsiella pneumoniae; 50 µg/mL (≈ 115 µM) in the assay with Streptococcus pyogenes; above 100 µg/mL against Burkholderia cepacia; 25 µg/mL (≈ 57.7 µM) with Bacillus anthracis; 50 µg/mL (≈ 115 µM) in the assay on Streptococcus pneumoniae. Moreover, the MIC is above 100 µg/mL with Proteus mirabilis; 6.25 µg/mL (≈ 14.4 µM) with Bacillus subtilis; above 100 µg/mL with Escherichia coli [1]; 25 µg/mL (≈ 57.7 µM) in [2]; 50 µg/mL (≈ 115 µM) with Acinetobacter baumannii; 25 µg/mL (≈ 57.7 µM) in the assay with Staphylococcus aureus [3]. In addition, the MIC in the assay with Pseudomonas aeruginosa is above 100 µg/mL; in the assay with Escherichia coli [4], 12.5 µg/mL (≈ 28.8 µM); in the assay with Staphylococcus aureus [5], 12.5 µg/mL (≈ 28.8 µM); against Proteus vulgaris, above 100 µg/mL.

As to `COc1ccc2cc1Oc1cc(ccc1OC)CCC(NCCc1ccc(F)cc1)CC2`, the MIC in the assay with Enterococcus faecalis was 100 µg/mL (≈ 230 µM); with Klebsiella pneumoniae it was above 100 µg/mL; in the assay on Streptococcus pyogenes, 100 µg/mL (≈ 230 µM); with Burkholderia cepacia, above 100 µg/mL; with Bacillus anthracis it was 100 µg/mL (≈ 230 µM); in the assay with Streptococcus pneumoniae it was 100 µg/mL (≈ 230 µM). For the same molecule, the MIC in the assay with Proteus mirabilis is above 100 µg/mL; in the assay on Bacillus subtilis it was 50 µg/mL (≈ 115 µM); in the assay with Escherichia coli [1] it was above 100 µg/mL; in assay [2], 50 µg/mL (≈ 115 µM); with Acinetobacter baumannii, 100 µg/mL (≈ 230 µM); in the assay on Staphylococcus aureus [3], 50 µg/mL (≈ 115 µM). The MIC is above 100 µg/mL with Pseudomonas aeruginosa, 50 µg/mL (≈ 115 µM) with Escherichia coli [4], 100 µg/mL (≈ 230 µM) in the assay on Staphylococcus aureus [5] and above 100 µg/mL against Proteus vulgaris.
